Test results from paper PMC4910235, “Selenophene and thiophene-core estrogen receptor ligands that inhibit motility and development of parasitic stages of Haemonchus contortus” (Parasites & Vectors, 2016).
Where two headings read alike, the source gives them in different places.

Assays:
[1] = tested on: fourth-stage larvae (L4s) of H. contortus; test: L4 motility assay; assay type: cell-based
Experimental: The selenophene and thiophene-core ligands (n = 74) (Additional file 1) were screened at a concentration of 20 μM on exsheathed third-stage larvae (xL3s) of H. contortus in 96-well microculture plates (cat. no. 3635; Corning 3650, Life Sciences, Corning, USA) using relevant control compounds (i.e. moxidectin and monepantel), as described previously. In brief, compounds were dissolved to a stock concentration of 10 mM in either dimethyl sulfoxide (DMSO) or methanol (Sigma-Adrich Scientific, St. Louis, USA). These ligands were then individually diluted to the final concentration of 20 μM using Luria Bertani medium (LB) supplemented with 100 IU/ml of penicillin, 100 μg/ml of streptomycin and 2.5 μg/ml of amphotericin (LB*). Compounds were dispensed (in triplicate) into the wells of a 96-well microculture plate using a multichannel pipette. In addition, the negative controls (LB*, LB* + 0.5 % solvent; six wells each), and positive controls (20 μM of monepantel; Zolvix, Novartis Animal Health, Basel, Switzerland and 20 μM of moxidectin; Cydectin, Virbac, Carros, France; triplicate wells) and xL3s (~300/well) were dispensed into wells of the plate using an automated multichannel pipette (Viaflo Assist/II, Integra Biosciences, Zizers, Switzerland). […], a video recording (5 s) was taken of each well of the 96-well microculture plate (containing xL3s) using a greyscale camera (Rolera Bolt CMOS, Qimaging Scientific, Surrey, Canada) and a motorised X-Y axis stage (BioPoint 2, Ludl Electronics Products, Hawthorne, USA). Individual videos were processed to calculate a motility index (MI) using an algorithm described previously. MIs were normalised to the negative and positive controls (to remove plate-to-plate variation) using the program Prism (v.6 GraphPad Software, USA). Z’-scores were calculated to validate the performance of the screening assay; reliable assays achieve Z’-scores of between 0.5 and 1 [28]. […] Compounds that reduced the motility of xL3s were also tested for their ability to inhibit the motility of L4s (same protocol as for xL3s) and/or to affect the development of xL3s to L4s. Following the measurement of L4 motility, larvae were re-incubated for 4 more days and fixed with 1 % iodine (50 μl). Then, L4 development was assessed based on the presence of a well-developed mouth/pharynx using a light microscope and expressed as a percentage of the total number of larvae examined (n = 30).
(§1) All assays (to assess xL3 motility, L4 development and L4 motility) were performed in triplicate, three times, on separate days.

[2] = tested on: development of xL3s to L4s of H. contortus; test: L4 development assay (xL3 to L4); assay type: cell-based; conditions: Haemonchus contortus, 168 h, read-out: L4 development (IC50s in μM)
Experimental: The selenophene and thiophene-core ligands (n = 74) (Additional file 1) were screened at a concentration of 20 μM on exsheathed third-stage larvae (xL3s) of H. contortus in 96-well microculture plates (cat. no. 3635; Corning 3650, Life Sciences, Corning, USA) using relevant control compounds (i.e. moxidectin and monepantel), as described previously. In brief, compounds were dissolved to a stock concentration of 10 mM in either dimethyl sulfoxide (DMSO) or methanol (Sigma-Adrich Scientific, St. Louis, USA). These ligands were then individually diluted to the final concentration of 20 μM using Luria Bertani medium (LB) supplemented with 100 IU/ml of penicillin, 100 μg/ml of streptomycin and 2.5 μg/ml of amphotericin (LB*). Compounds were dispensed (in triplicate) into the wells of a 96-well microculture plate using a multichannel pipette. In addition, the negative controls (LB*, LB* + 0.5 % solvent; six wells each), and positive controls (20 μM of monepantel; Zolvix, Novartis Animal Health, Basel, Switzerland and 20 μM of moxidectin; Cydectin, Virbac, Carros, France; triplicate wells) and xL3s (~300/well) were dispensed into wells of the plate using an automated multichannel pipette (Viaflo Assist/II, Integra Biosciences, Zizers, Switzerland). Following a 72 h incubation at 38 °C and 10 % CO2, a video recording (5 s) was taken of each well of the 96-well microculture plate (containing xL3s) using a greyscale camera (Rolera Bolt CMOS, Qimaging Scientific, Surrey, Canada) and a motorised X-Y axis stage (BioPoint 2, Ludl Electronics Products, Hawthorne, USA). Individual videos were processed to calculate a motility index (MI) using an algorithm described previously. MIs were normalised to the negative and positive controls (to remove plate-to-plate variation) using the program Prism (v.6 GraphPad Software, USA). Z’-scores were calculated to validate the performance of the screening assay; reliable assays achieve Z’-scores of between 0.5 and 1 [28]. A compound was recorded as having an activity if it reduced xL3 motility by ≥ 70 % following incubation for 72 h. […] Compounds that reduced the motility of xL3s were also tested for their ability to inhibit the motility of L4s (same protocol as for xL3s) and/or to affect the development of xL3s to L4s. Following the measurement of L4 motility, larvae were re-incubated for 4 more days and fixed with 1 % iodine (50 μl). Then, L4 development was assessed based on the presence of a well-developed mouth/pharynx using a light microscope and expressed as a percentage of the total number of larvae examined (n = 30).
as §1

[3] = Haemonchus contortus, 24 h; read-out: L4 motility (IC50s in μM)
[4] = Haemonchus contortus, 48 h; read-out: L4 motility (IC50s in μM)
[5] = Haemonchus contortus, 72 h; read-out: L4 motility (IC50s in μM)

Row | SMILES | IC50 [1, 3] | IC50 [1, 4] | IC50 [1, 5] | IC50 ([1]; Haemonchus contortus; read-out: L4 motility IC50 at both 48 h and 72 h) | IC50 ([2]; 7 days) | IC50 ([1]; Haemonchus contortus, 24 h, read-out: L4 motility (IC50s in μM)) | IC50 ([1]; Haemonchus contortus, 48 h, read-out: L4 motility (IC50s in μM)) | IC50 ([1]; Haemonchus contortus, 72 h, read-out: L4 motility (IC50s in μM)) | IC50 [2]
1 | Oc1ccc(-c2cscc2-c2ccc(O)cc2Cl)c(Cl)c1 [MJ-17] | 13.9 µM | 6.2 µM | 6.1 µM | 6.1 to 6.2 µM | 13.7 µM | – | – | – | –
2 | Cc1cc(O)ccc1-c1ccc(-c2ccc(O)cc2F)s1 [MJ-22] | 6.4 µM | 3.2 µM | 6.2 µM | – | 10.5 µM | – | – | – | –
3 | C[C@](C#N)(COc1cc(C#N)ccc1C(F)(F)F)NC(=O)c1ccc(SC(F)(F)F)cc1 [Monepantel, reference compound] | 4.3 µM | 2.2 µM | 3 µM | – | 0.4 µM | – | – | – | –
4 | CO/N=C1\C[C@]2(C[C@@H]3C[C@@H](C/C=C(\C)C[C@@H](C)/C=C/C=C4\CO[C@@H]5[C@H](O)C(C)=C[C@@H](C(=O)O3)[C@]45O)O2)O[C@H](/C(C)=C/C(C)C)[C@H]1C [Moxidectin, reference compound] | 2.2 µM | 0.6 µM | 0.0045 µM | – | 12.3 µM | – | – | – | –
5 | Oc1ccc(-c2ccc(-c3ccc(O)cc3Cl)[se]2)c(Cl)c1 [WZY-2] | – | – | – | – | – | 9.3 µM | 6.1 µM | 6.2 µM | 12.2 µM
